Like-named read-outs stand apart in the source and are kept apart here.
Legend:
Assay type in all cases: in vivo
[1] = test system: kochia (Bassia scoparia); test: Test A postemergence, kochia; details: Bassia scoparia, post-emergence, 240 h, Postemergence, 0 to 100 scale (0 no effect, 100 complete control); for pest or weed control at 125 g/ha: 125 g ai/ha, visual injury approx. 10 days; for pest or weed control at 500 g/ha: 500 g ai/ha
Procedure, shortened: (§1)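 Postemergence ratings come from foliar sprays onto one- to two-leaf plants of 2 to 10 cm grown in loam/sand; preemergence ratings come from a directed spray onto the soil of newly seeded pots. Formulation was a surfactant-containing non-phytotoxic solvent blend.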

[2] = test system: corn (Zea mays); test: Test A postemergence, corn; details: Zea mays, post-emergence, 240 h, Postemergence, 0 to 100 scale (0 no effect, 100 complete control); for Corn plant response rating (crop injury, 0 = no effect, 100 = complete kill) at 125 g/ha: 125 g ai/ha, visual injury approx. 10 days; for Corn plant response rating (crop injury, 0 = no effect, 100 = complete kill) at 500 g/ha / plant injury at 500 g/ha: 500 g ai/ha; for Corn plant response rating (crop injury, 0 = no effect, 100 = complete kill) at 500 g/ha: visual injury, approx. 10 days; for plant injury at 500 g/ha: visual injury vs untreated controls after approx. 10 days, read-out: Corn plant response rating
Procedure, shortened: as §1

[3] = test system: galium (catchweed bedstraw, Galium aparine); test: Test A postemergence, galium; details: Galium, post-emergence, 240 h, Postemergence, 0 to 100 scale (0 no effect, 100 complete control); for pest or weed control at 125 g/ha: 125 g ai/ha, visual injury approx. 10 days; for pest or weed control at 500 g/ha: 500 g ai/ha
Procedure, shortened: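 Preemergence: pigweed seeds in loam soil–sand blend received a directed soil spray of test chemicals in a non-phytotoxic solvent with surfactant. Postemergence: barnyardgrass, wheat and galium in pots of the same soil, 2 to 10 cm tall at one- to two-leaf stage, sprayed with the same formulation.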

[4] = test system: blackgrass (Alopecurus myosuroides); test: Test A postemergence, blackgrass; details: Alopecurus myosuroides, post-emergence, 240 h, Postemergence, 0 to 100 scale (0 no effect, 100 complete control); for pest or weed control at 125 g/ha: 125 g ai/ha, visual injury approx. 10 days; for pest or weed control at 500 g/ha: 500 g ai/ha
Procedure, shortened: as §1

[5] = read-out: Plant response rating, Kochia
[6] = visual injury, approx. 10 days, read-out: Plant response rating, Kochia
[7] = read-out: Plant response rating, Galium
[8] = visual injury, approx. 10 days, read-out: Plant response rating, Galium
[9] = read-out: Plant response rating, Blackgrass
[10] = visual injury, approx. 10 days, read-out: Plant response rating, Blackgrass
[11] = visual injury vs untreated controls after approx. 10 days, read-out: Kochia plant response rating
[12] = visual injury vs untreated controls after approx. 10 days, read-out: Galium plant response rating
[13] = visual injury vs untreated controls after approx. 10 days, read-out: Blackgrass plant response rating

## Cc1cc(Cl)c(NS(=O)(=O)C(F)(F)F)cc1C(=O)N1CCOCC1 [Compound 16, N-[2-Chloro-4-methyl-5-(4-morpholinylcarbonyl)phenyl]-1,1,1-trifluoromethanesulfonamide]
[1]; [5]
  pest or weed control at 125 g/ha: 40%
[1]; [6]
  pest or weed control at 500 g/ha: 80%
[2]
  Corn plant response rating (crop injury, 0 = no effect, 100 = complete kill) at 125 g/ha: 0%
  Corn plant response rating (crop injury, 0 = no effect, 100 = complete kill) at 500 g/ha: 50%
[3]; [7]
  pest or weed control at 125 g/ha: 80%
[3]; [8]
  pest or weed control at 500 g/ha: 90%
[4]; [9]
  pest or weed control at 125 g/ha: 50%
[4]; [10]
  pest or weed control at 500 g/ha: 40%

## Cc1cc(Cl)c(NS(=O)(=O)C(F)(F)F)cc1C(=O)N1CCCCC1 [Compound 18, N-[2-Chloro-4-methyl-5-(1-piperidinylcarbonyl)phenyl]-1,1,1-trifluoromethanesulfonamide]
[1]; [5]
  pest or weed control at 125 g/ha: 10%
[1]; [6]
  pest or weed control at 500 g/ha: 40%
[2]
  Corn plant response rating (crop injury, 0 = no effect, 100 = complete kill) at 125 g/ha: 0%
  Corn plant response rating (crop injury, 0 = no effect, 100 = complete kill) at 500 g/ha: 0%
[3]; [7]
  pest or weed control at 125 g/ha: 80%
[3]; [8]
  pest or weed control at 500 g/ha: 80%
[4]; [9]
  pest or weed control at 125 g/ha: 0%
[4]; [10]
  pest or weed control at 500 g/ha: 0%

## CCc1cc(-c2cc(NS(=O)(=O)C(F)(F)F)c(C)cc2C)c(=O)n(C)n1 [Compound 34, N-[5-(6-Ethyl-2,3-dihydro-2-methyl-3-oxo-4-pyridazinyl)-2,4-dimethylphenyl]-1,1,1-trifluoromethanesulfonamide]
[1]; [5]
  pest or weed control at 125 g/ha: 30%
[1]; [6]
  pest or weed control at 500 g/ha: 50%
[2]
  Corn plant response rating (crop injury, 0 = no effect, 100 = complete kill) at 125 g/ha: 0%
  Corn plant response rating (crop injury, 0 = no effect, 100 = complete kill) at 500 g/ha: 0%
[3]; [7]
  pest or weed control at 125 g/ha: 10%
[3]; [8]
  pest or weed control at 500 g/ha: 0%
[4]; [9]
  pest or weed control at 125 g/ha: 0%
[4]; [10]
  pest or weed control at 500 g/ha: 0%

## Cc1cc(C)c(N(COC(=O)C(C)(C)C)S(=O)(=O)C(F)(F)F)cc1C1=NO[C@@H]2CCC[C@H]12 [Compound 100, [[2,4-Dimethyl-5-[(3aR,6aR)-3a,5,6,6a-tetrahydro-4H-cyclopent[d]isoxazol-3-yl]phenyl][(trifluoromethyl)sulfonyl]amino]methyl 2,2-dimethylpropanoate]
[1]; [5]
  pest or weed control at 125 g/ha: 60%
[1]; [11]
  pest or weed control at 500 g/ha: 90%
[2]
  Corn plant response rating (crop injury, 0 = no effect, 100 = complete kill) at 125 g/ha: 10%
  plant injury at 500 g/ha: 30%
[3]; [7]
  pest or weed control at 125 g/ha: 80%
[3]; [12]
  pest or weed control at 500 g/ha: 90%
[4]; [9]
  pest or weed control at 125 g/ha: 0%
[4]; [13]
  pest or weed control at 500 g/ha: 0%

## Cc1cc(C)c(C2=NO[C@@H]3CCC[C@H]23)cc1NS(=O)(=O)C(F)(F)F [Compound 103, N-[2,4-Dimethyl-5-[(3aR,6aR)-3a,5,6,6a-tetrahydro-4H-cyclopent[d]isoxazol-3-yl]phenyl]-1,1,1-trifluoromethanesulfonamide]
[1]; [5]
  pest or weed control at 125 g/ha: 70%
[1]; [11]
  pest or weed control at 500 g/ha: 80%
[2]
  Corn plant response rating (crop injury, 0 = no effect, 100 = complete kill) at 125 g/ha: 20%
  plant injury at 500 g/ha: 70%
[3]; [7]
  pest or weed control at 125 g/ha: 90%
[3]; [12]
  pest or weed control at 500 g/ha: 100%
[4]; [9]
  pest or weed control at 125 g/ha: 0%
[4]; [13]
  pest or weed control at 500 g/ha: 30%

## Cc1cc(C)c(C2=NOC3CCOCC23)cc1NS(=O)(=O)C(F)(F)F (centres unmarked) [Compound 120, N-[2,4-Dimethyl-5-(3a,6,7,7a-tetrahydro-4H-pyrano[3,4-d]isoxazol-3-yl)phenyl]-1,1,1-trifluoromethanesulfonamide]
[1]; [5]
  pest or weed control at 125 g/ha: 70%
[1]; [11]
  pest or weed control at 500 g/ha: 90%
[2]
  Corn plant response rating (crop injury, 0 = no effect, 100 = complete kill) at 125 g/ha: 0%
  plant injury at 500 g/ha: 70%
[3]; [7]
  pest or weed control at 125 g/ha: 90%
[3]; [12]
  pest or weed control at 500 g/ha: 90%
[4]; [9]
  pest or weed control at 125 g/ha: 20%
[4]; [13]
  pest or weed control at 500 g/ha: 70%

## Cc1cc(C)c(C2=NOC3COCCC23)cc1NS(=O)(=O)C(F)(F)F (centres unmarked) [Compound 121, N-[2,4-Dimethyl-5-(3a,4,7,7a-tetrahydro-5H-pyrano[4,3-d]isoxazol-3-yl)phenyl]-1,1,1-trifluoromethanesulfonamide]
[1]; [5]
  pest or weed control at 125 g/ha: 50%
[1]; [11]
  pest or weed control at 500 g/ha: 80%
[2]
  Corn plant response rating (crop injury, 0 = no effect, 100 = complete kill) at 125 g/ha: 50%
  plant injury at 500 g/ha: 80%
[3]; [7]
  pest or weed control at 125 g/ha: 90%
[3]; [12]
  pest or weed control at 500 g/ha: 90%
[4]; [9]
  pest or weed control at 125 g/ha: 40%
[4]; [13]
  pest or weed control at 500 g/ha: 80%
